The target of the first test is Human VPS34 (Homo sapiens (Human), UniProt Q8NEB9). Nature of the test: Human VPS34 enzyme assay (Adapta TR-FRET). The format is biochemical. The conditions noted are these: compound concentration 1.11 μM.
Human VPS34, sequence (Q8NEB9 whole entry): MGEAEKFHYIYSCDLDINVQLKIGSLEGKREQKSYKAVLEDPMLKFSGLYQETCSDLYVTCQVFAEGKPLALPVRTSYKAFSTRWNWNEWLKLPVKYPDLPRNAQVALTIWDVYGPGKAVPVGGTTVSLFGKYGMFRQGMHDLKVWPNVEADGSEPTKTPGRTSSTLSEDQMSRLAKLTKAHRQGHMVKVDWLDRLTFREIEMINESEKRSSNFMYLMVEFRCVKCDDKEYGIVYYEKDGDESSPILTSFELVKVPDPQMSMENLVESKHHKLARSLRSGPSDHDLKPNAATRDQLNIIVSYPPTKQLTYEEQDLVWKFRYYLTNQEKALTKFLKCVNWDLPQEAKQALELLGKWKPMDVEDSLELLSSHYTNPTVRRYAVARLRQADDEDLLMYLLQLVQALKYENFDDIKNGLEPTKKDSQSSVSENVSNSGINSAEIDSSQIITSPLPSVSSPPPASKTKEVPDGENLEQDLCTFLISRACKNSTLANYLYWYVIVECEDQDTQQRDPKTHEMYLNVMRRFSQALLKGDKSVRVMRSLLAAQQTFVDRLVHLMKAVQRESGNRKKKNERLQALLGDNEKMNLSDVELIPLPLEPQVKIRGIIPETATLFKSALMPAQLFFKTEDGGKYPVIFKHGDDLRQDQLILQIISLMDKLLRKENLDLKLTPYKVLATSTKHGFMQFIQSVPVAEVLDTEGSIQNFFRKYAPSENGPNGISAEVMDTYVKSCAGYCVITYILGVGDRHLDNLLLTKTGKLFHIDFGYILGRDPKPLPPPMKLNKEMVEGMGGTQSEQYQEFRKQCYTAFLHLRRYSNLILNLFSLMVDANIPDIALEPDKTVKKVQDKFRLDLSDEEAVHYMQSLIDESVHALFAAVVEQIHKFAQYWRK
On to `CC(=O)Nc1cc(-c2cnc(C)c(NS(=O)(=O)N3CC4CCC3C4)c2)ccn1` (stereo not shown) [Compound I-445, N-{5-[(2-azabicyclo[2.2.1]hept-2-ylsulfonyl)amino]-6-methyl-3,4′-bipyridin-2′-yl}acetamide], for which the “Percent Inhibition” value is given as greater than 99%.

The test is the same for the next values; noted with them: compound concentration 1.11 μM; read-out: Percent Inhibition.
Take `CC(=O)Nc1cc(-c2cnc(C#N)c(NS(=O)(=O)c3ccc(F)cc3F)c2)ccn1` [Compound I-411, N-(6-cyano-5-{[(2,4-difluorophenyl)sulfonyl]amino}-3,4′-bipyridin-2′-yl)acetamide]: the inhibition at 1.11 µM stood at 88%.

In the case of `CC(=O)Nc1cc(-c2cnc(C)c(NS(=O)(=O)CC(F)F)c2)ccn1` [Compound I-412, N-(5-{[(2,2-difluoroethyl)sulfonyl]amino}-6-methyl-3,4′-bipyridin-2′-yl)acetamide], the inhibition at 1.11 µM worked out at 97%. Turning to `O=C(c1cncc(-c2ccnc(Nc3ccnc(C4CC4)n3)c2)c1)N1CC(F)(F)C1` [Compound I-413], the inhibition at 1.11 µM is greater than 99%.

Turning to `CC(=O)Nc1cc(-c2cnc(C)c(NS(=O)(=O)c3ccc(F)cc3F)c2)cc(C)n1` [Compound I-414, N-(5-{[(2,4-difluorophenyl)sulfonyl]amino}-6,6′-dimethyl-3,4′-bipyridin-2′-yl)acetamide], the inhibition at 1.11 µM is 89%.

With `Cc1nccc(Nc2cc(-c3cnc(C)c(C(=O)N4CC5(COC5)C4)c3)ccn2)n1` [Compound I-415, {6-methyl-2′-[(2-methylpyrimidin-4-yl)amino]-3,4′-bipyridin-5-yl}(2-oxa-6-azaspiro[3.3]hept-6-yl)methanone], the inhibition at 1.11 µM was 82%.

Regarding `CC(=O)Nc1cc(-c2cnc(C)c(N3CC=CS3(=O)=O)c2)ccn1` [Compound I-416, N-[5-(1,1-dioxidoisothiazol-2(3H)-yl)-6-methyl-3,4′-bipyridin-2′-yl]acetamide], the inhibition at 1.11 µM was greater than 99%. Consider `COC(=O)Nc1cc(-c2cnc(C)c(NS(=O)(=O)c3ccc(Cl)cc3F)c2)ccn1` [Compound I-417, methyl (5-{[(4-chloro-2-fluorophenyl)sulfonyl]amino}-6-methyl-3,4′-bipyridin-2′-yl)carbamate], for which the inhibition at 1.11 µM was greater than 99%.

For `CC(=O)Nc1cc(-c2cnc(C)c(S(=O)(=O)NC34CC(C3)C4)c2)ccn1` [Compound I-418, N-[5-(bicyclo[1.1.1]pent-1-ylsulfamoyl)-6-methyl-3,4′-bipyridin-2′-yl]acetamide], the inhibition at 1.11 µM was greater than 99%. On to `CC(=O)Nc1cc(-c2cncc(NC(=O)c3ccc(F)cc3F)c2)ccn1` [Compound I-419, N-(2′-acetamido-3,4′-bipyridin-5-yl)-2,4-difluorobenzamide], for which the inhibition at 1.11 µM was determined as 56%. Still for that read-out and setting: as for `CC(=O)Nc1cc(-c2cnc3c(c2)S(=O)(=O)N[C@H](c2ccccc2)CO3)ccn1` [Compound I-420, (R)-N-(4-(1,1-dioxido-3-phenyl-3,4-dihydro-2H-pyrido[2,3-b][1,4,5]oxathiazepin-8-yl)pyridin-2-yl)acetamide], the figure is 59%. Same read-out and setting: as for `Cc1nccc(Nc2cc(-c3cncc(C(C)Oc4ccccc4F)c3)ccn2)n1` (stereo not shown) [Compound I-422, 5-[1-(2-fluorophenoxy)ethyl]-N-(2-methylpyrimidin-4-yl)-3,4′-bipyridin-2′-amine], the figure is 96%; as for `COc1ncc(-c2ccnc(NC(C)=O)c2)cc1C(=O)N(C)c1ccc(F)cc1F` [Compound I-423, 2′-acetamido-N-(2,4-difluorophenyl)-6-methoxy-N-methyl-3,4′-bipyridine-5-carboxamide], greater than 99%. As to `Cc1nccc(Nc2cc(-c3cnc(C)c(OCCO)c3)ccn2)n1` [Compound I-424, 2-({6-methyl-2′-[(2-methylpyrimidin-4-yl)amino]-3,4′-bipyridin-5-yl}oxy)ethanol], the inhibition at 1.11 µM is greater than 99%. The same measure, in the same setting: as for `CC(=O)Nc1cc(-c2cnc(Cl)c(N3CCCS3(=O)=O)c2C)ccn1` [Compound I-425, N-[6-chloro-5-(1,1-dioxidoisothiazolidin-2-yl)-4-methyl-3,4′-bipyridin-2′-yl]acetamide], the figure is 100%; as for `COc1ncc(-c2ccnc(NC(C)=O)c2)cc1S(=O)(=O)NC1CCC1` [Compound I-426, N-[5-(cyclobutylsulfamoyl)-6-methoxy-3,4′-bipyridin-2′-yl]acetamide], greater than 99%. For the compound `CN(C)S(=O)(=O)Nc1cc(-c2ccnc(Nc3ccnc(C4CC4)n3)c2)cn2nccc12` [Compound I-427, N′-(6-{2-[(2-cyclopropylpyrimidin-4-yl)amino]pyridin-4-yl}pyrazolo[1,5-a]pyridin-4yl)-N,N-dimethylsulfuric diamide], the inhibition at 1.11 µM is greater than 99%. Still for that read-out and setting: as for `CC(=O)Nc1cc(-c2cc(OS(=O)(=O)N(C)C)c3ccnn3c2)ccn1` [Compound I-428, 6-(2-acetamidopyridin-4-yl)pyrazolo[1,5-a]pyridin-4-yl dimethylsulfamate], the figure is greater than 99%. The same measure, in the same setting: for `CC(=O)Nc1cc(-c2cnc(Cl)c(NS(=O)(=O)c3ccc(C#N)cc3)c2C)ccn1` [Compound I-429, N-(6-chloro-5-{[(4-cyanophenyl)sulfonyl]amino}-4-methyl-3,4′-bipyridin-2′-yl)acetamide] the value was 96%; for `Cc1cnc(NC(=O)C2CC2)cc1-c1cnc(Cl)c(NS(=O)(=O)c2ccc(F)cc2F)c1C` [Compound I-430, N-(6-chloro-5-{[(2,4-difluorophenyl)sulfonyl]amino}-4,5′-dimethyl-3,4′-bipyridin-2′-yl)cyclopropanecarboxamide], 92%. The same measure, in the same setting: for `CC(=O)Nc1cc(-c2cnc(C)c(C(=O)Nc3ccc(F)cc3F)c2)ccn1` [Compound I-431, 2′-acetamido-N-(2,4-difluorophenyl)-6-methyl-3,4′-bipyridine-5-carboxamide] the value was 74%; for `COc1ncc(-c2ccnc(NC(C)=O)c2)cc1S(=O)(=O)Nc1cc(Cl)ccc1Cl` [Compound I-432, N-{5-[(2,5-dichlorophenyl)sulfamoyl]-6-methoxy-3,4′-bipyridin-2′-yl}acetamide], 98%; for `Cc1ncc(-c2ccnc(NC(=O)C3CC3)c2)cc1NS(=O)(=O)c1ccc(Cl)cc1F` [Compound I-433, N-(5-{[(4-chloro-2-fluorophenyl)sulfonyl]amino}-6-methyl-3,4′-bipyridin-2′-yl)cyclopropanecarboxamide], 93%. In the case of `CC(=O)Nc1cc(-c2cnc(Cl)c(C(=O)N3CCC3)c2)c(C)cn1` [Compound I-434], the inhibition at 1.11 µM worked out at 36%. On to `Cc1c(-c2ccnc(Nc3ccnc(C4CC4)n3)c2)cnc(Cl)c1NS(=O)(=O)N(C)C` [Compound I-435, N′-{6-chloro-2′-[(2-cyclopropylpyrimidin-4-yl)amino]-4-methyl-3,4′-bipyridin-5-yl}-N,N-dimethylsulfuric diamide], for which the inhibition at 1.11 µM was determined as 96%. On to `CNc1ncc(-c2ccnc(NC(C)=O)c2)c(C)c1S(=O)(=O)NC(C)(C)C` [Compound I-436, N-[5-(tert-butylsulfamoyl)-4-methyl-6-(methylamino)-3,4′-bipyridin-2′-yl]acetamide], for which the inhibition at 1.11 µM came out at 89%. Same read-out and setting: as for `CC(=O)Nc1cc(-c2cnc(Cl)c(NS(=O)(=O)c3cccc4ncccc34)c2C)ccn1` [Compound I-437, N-{6-chloro-4-methyl-5-[(quinolin-5-ylsulfonyl)amino]-3,4′-bipyridin-2′-yl}acetamide], the figure is greater than 99%; as for `CC(=O)Nc1cc(-c2cnc(Cl)c(S(=O)(=O)NC3CCC3)c2)ccn1` [Compound I-438, N-[6-chloro-5-(cyclobutylsulfamoyl)-3,4′-bipyridin-2′-yl]acetamide], greater than 99%. Still for that read-out and setting: for `Cc1nccc(Nc2cc(-c3cnc(C)c(NC(=O)Nc4ccccc4)c3)ccn2)n1` [Compound I-439, 1-{6-methyl-2′-[(2-methylpyrimidin-4-yl)amino]-3,4′-bipyridin-5-yl}-3-phenylurea] the value was 69%; for `Cc1nccc(Nc2cc(-c3cncc(OC4CCc5c(F)cccc54)c3)ccn2)n1` (stereo not shown) [Compound I-440, 5-[(4-fluoro-2,3-dihydro-1H-inden-1-yl)oxy]-N-(2-methylpyrimidin-4-yl)-3,4′-bipyridin-2′-amine], 83%; for `Cc1ncc(-c2ccnc(NC(=O)C3CC3(F)F)c2)cc1NS(=O)(=O)c1ccc(Cl)cc1F` (stereo not shown) [Compound I-441, N-(5-{[(4-chloro-2-fluorophenyl)sulfonyl]amino}-6-methyl-3,4′-bipyridin-2′-yl)-2,2-difluorocyclopropanecarboxamide], greater than 99%.

On to `COc1ncc(-c2ccnc(NC(C)=O)c2)c(C)c1S(=O)(=O)NC(C)(C)C` [Compound I-442, N-[5-(tert-butylsulfamoyl)-6-methoxy-4-methyl-3,4′-bipyridin-2′-yl]acetamide], for which the inhibition at 1.11 µM is greater than 99%. Still for that read-out and setting: for `CC(=O)Nc1cc(-c2cncc(S(=O)(=O)NC(C)(C)C)c2)ccn1` [Compound I-443, N-[5-(tert-butylsulfamoyl)-3,4′-bipyridin-2′-yl]acetamide] the value was greater than 99%. On the same count and under the same terms, as for `CC(=O)Nc1cc(-c2cnc(Cl)c(NS(=O)(=O)c3ccc(Br)cc3F)c2C)ccn1` [Compound I-444, N-(5-{[(4-bromo-2-fluorophenyl)sulfonyl]amino}-6-chloro-4-methyl-3,4′-bipyridin-2′-yl)acetamide], the figure is greater than 99%; as for `Cc1nccc(Nc2cc(-c3cnc(C)c(OC(C)C)c3)ccn2)n1` [Compound I-446, 5-isopropoxy-6-methyl-N-(2-methylpyrimidin-4-yl)-3,4′-bipyridin-2′-amine], greater than 99%; as for `CC(=O)Nc1cc(-c2cnc(C)c(NS(=O)(=O)N3CCOCC3)c2)ccn1` [Compound I-447, N-{6-methyl-5-[(morpholin-4-ylsulfonyl)amino]-3,4′-bipyridin-2′-yl}acetamide], 98%. The same measure, in the same setting: for `CC(=O)Nc1cc(-c2cnc(Cl)c(N3CCCNS3(=O)=O)c2)ccn1` [Compound I-448, N-[6-chloro-5-(1,1-dioxido-1,2,6-thiadiazinan-2-yl)-3,4′-bipyridin-2′-yl]acetamide] the value was 87%.
